Legend:
Substance-P receptor [1] = biological target: T1, Substance-P receptor (Homo sapiens, UniProt P25103); experiment: Displacement of [3H] labelled Substance P from cloned human NK1 receptor expressed in CHO cells; type: cell-based
Substance-P receptor [2] = biological target: T1, Substance-P receptor; experiment: Effect on IP3 turnover by phospholipaseC positively linked to human NK1 receptor expressed in CHO cells; type: functional, cell-based; details: read-out: pA2 (converted)
Gerbil, jird = experiment: Inhibition of GR-73632 induced foot tapping in po dosed gerbils; type: functional; details: Meriones

T1 sequence (P25103 whole entry): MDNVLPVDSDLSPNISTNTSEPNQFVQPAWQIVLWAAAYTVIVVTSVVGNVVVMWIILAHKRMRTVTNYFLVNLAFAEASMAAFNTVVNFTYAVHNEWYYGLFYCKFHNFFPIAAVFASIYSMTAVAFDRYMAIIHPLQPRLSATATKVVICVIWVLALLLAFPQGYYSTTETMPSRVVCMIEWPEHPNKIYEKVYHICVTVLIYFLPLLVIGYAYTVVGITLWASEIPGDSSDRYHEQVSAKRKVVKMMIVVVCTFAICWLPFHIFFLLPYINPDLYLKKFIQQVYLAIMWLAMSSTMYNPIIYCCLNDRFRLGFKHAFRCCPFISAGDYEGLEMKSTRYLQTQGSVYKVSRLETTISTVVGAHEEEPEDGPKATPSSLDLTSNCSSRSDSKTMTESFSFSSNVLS

Row | SMILES | Ki (Substance-P receptor [1]) [nM] | Kb (Substance-P receptor [2]) [nM] | ED50 (Gerbil, jird) [mg/kg]
1 | C/C(CN1CCN(C(=O)c2cc(C(F)(F)F)cc(C(F)(F)F)c2)[C@H](Cc2c[nH]c3ccccc23)C1)=N/OCCN1CCN(C)CC1 | 1.58 | 1.58 | > 10
2 | C/C(CCN1CCN(C(=O)c2cc(C(F)(F)F)cc(C(F)(F)F)c2)[C@H](Cc2c[nH]c3ccccc23)C1)=N/OCCN1CCOCC1 | 0.398 | 1.26 | 2
3 | C/C(CN1CCN(C(=O)c2cc(C(F)(F)F)cc(C(F)(F)F)c2)[C@H](Cc2c[nH]c3ccccc23)C1)=N/OCCCN1CCOCC1 | 12.6 | 0.158 | 7.4
4 | C/C(CN1CCN(C(=O)c2cc(C(F)(F)F)cc(C(F)(F)F)c2)[C@H](Cc2c[nH]c3ccccc23)C1)=N/OCC(C)N1CCOCC1 (stereo not given in full) | 3.16 | 2 | 2.6
5 | O=C(c1cc(C(F)(F)F)cc(C(F)(F)F)c1)N1CCN(CC2=NOC(CN3CCOCC3)C2)C[C@H]1Cc1c[nH]c2ccccc12 (stereo not given in full) | 2.51 | 0.631 | 6.4
6 | C/C(CN1CCN(C(=O)c2cc(C(F)(F)F)cc(C(F)(F)F)c2)[C@H](Cc2c[nH]c3ccccc23)C1)=N/OCCN | 0.794 | 0.158 | > 10
7 | C/C(CN1CCN(C(=O)c2cc(C(F)(F)F)cc(C(F)(F)F)c2)[C@H](Cc2c[nH]c3ccccc23)C1)=N/OCCN1CCSCC1 | 6.31 | 1.26 | 10
8 | CNCCO/N=C(/C)CN1CCN(C(=O)c2cc(C(F)(F)F)cc(C(F)(F)F)c2)[C@H](Cc2c[nH]c3ccccc23)C1 | 2 | 0.316 | > 10
9 | C/C(CN1CCN(C(=O)c2cc(C(F)(F)F)cc(C(F)(F)F)c2)[C@H](Cc2c[nH]c3ccccc23)C1)=N/OCc1ccccn1 | 10 | 1.26 | 4.1
10 | O=C(c1cc(C(F)(F)F)cc(C(F)(F)F)c1)N1CCN(C/C=N\OCCN2CCOCC2)C[C@H]1Cc1c[nH]c2ccccc12 | 1.26 | 0.631 | 2
11 | O=C(c1cc(C(F)(F)F)cc(C(F)(F)F)c1)N1CCN(Cc2cc(CN3CCOCC3)on2)C[C@H]1Cc1c[nH]c2ccccc12 | 12.6 | 0.794 | 4.6
12 | C/C(CCN1CCN(C(=O)c2cc(C(F)(F)F)cc(C(F)(F)F)c2)[C@H](Cc2c[nH]c3ccccc23)C1)=N/OCCCN1CCOCC1 | 0.2 | 1 | 5.5
13 | C/C(CN1CCN(C(=O)c2cc(C(F)(F)F)cc(C(F)(F)F)c2)[C@H](Cc2c[nH]c3ccccc23)C1)=N/OCCN1CCOCC1 | 10 | 0.158 | 1.3
14 | C/C(CN1CCN(C(=O)c2cc(C(F)(F)F)cc(C(F)(F)F)c2)[C@H](Cc2c[nH]c3ccccc23)C1)=N/OCC(C)(C)N1CCOCC1 | 6.31 | 5.01 | –
15 | COc1ccccc1CNCCNC(=O)N1CCN(C(=O)c2cc(C(F)(F)F)cc(C(F)(F)F)c2)[C@H](Cc2c[nH]c3ccccc23)C1 | – | 1.26 | > 10
16 | C/C(CN1CCN(C(=O)c2cc(C(F)(F)F)cc(C(F)(F)F)c2)[C@H](Cc2c[nH]c3ccccc23)C1)=N/OCCN1CCS(=O)(=O)CC1 | 2.51 | 0.1 | > 10
17 | O=C(c1cc(C(F)(F)F)cc(C(F)(F)F)c1)N1CCN(CC/C(=N\OCCN2CCOCC2)c2ccccc2)C[C@H]1Cc1c[nH]c2ccccc12 | 10 | 1.26 | > 10
18 | O=C(c1cc(C(F)(F)F)cc(C(F)(F)F)c1)N1CCN(C/C(=N\OCCN2CCOCC2)c2ccccc2)C[C@H]1Cc1c[nH]c2ccccc12 | 20 | 3.16 | –
19 | O=C(c1cc(C(F)(F)F)cc(C(F)(F)F)c1)N1CCN(C/C=N\OCCCN2CCOCC2)C[C@H]1Cc1c[nH]c2ccccc12 | 1.26 | 0.631 | 2.3
20 | O=C(c1cc(C(F)(F)F)cc(C(F)(F)F)c1)N1CCN(C/C(=N\OCCCN2CCOCC2)c2ccccc2)C[C@H]1Cc1c[nH]c2ccccc12 | 6.31 | 1.26 | > 10
21 | C/C(CCCN1CCN(C(=O)c2cc(C(F)(F)F)cc(C(F)(F)F)c2)[C@H](Cc2c[nH]c3ccccc23)C1)=N/OCCN1CCOCC1 | 1.26 | 1.58 | 2
22 | C/C(CN1CCN(C(=O)c2cc(C(F)(F)F)cc(C(F)(F)F)c2)[C@H](Cc2c[nH]c3ccccc23)C1)=N/OCCN(C)C | 0.794 | 7.94 | > 10
23 | CO/N=C(/C)CN1CCN(C(=O)c2cc(C(F)(F)F)cc(C(F)(F)F)c2)[C@H](Cc2c[nH]c3ccccc23)C1 | 3.98 | 7.94 | –
